Experimental data as given in patent US20260234115A1, “LIPID COMPOUNDS, COMPOSITIONS, AND USES THEREOF” (Liberate Bio, Inc., priority 2023, published 2026).
Marks after values point to notes of the source that are not given here.

Test system: mouse organs
Experiment: In vivo activity screening in mice: organ mean total flux (p/s) of luciferase activity after injection of F2 LNP pools (Table 6, FIG. 7A-7C)
Settings: luciferase mRNA
Outline: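 C57BL/6J mice given one tail-vein injection of pooled Formulation F2 LNPs carrying firefly luciferase mRNA (0.25-3 mg/kg) in PBS. At 4-6 h, s.c. D-luciferin given; organs imaged ex vivo by IVIS within 10-15 min, after saline cardiac perfusion. Mean total flux (p/s) per organ ROI.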

| SMILES | Organ Mean Total Flux Femur (Mouse 12, dose 0.5 mg/kg) | Organ Mean Total Flux Heart (Mouse 12, dose 0.5 mg/kg) | Organ Mean Total Flux Kidney (Mouse 12, dose 0.5 mg/kg) | Organ Mean Total Flux Liver (Mouse 12, dose 0.5 mg/kg) | Organ Mean Total Flux Lung (Mouse 12, dose 0.5 mg/kg) | Organ Mean Total Flux Muscle (Mouse 12, dose 0.5 mg/kg) | Organ Mean Total Flux Pancreas (Mouse 12, dose 0.5 mg/kg) | Organ Mean Total Flux Spleen (Mouse 12, dose 0.5 mg/kg) | Organ Mean Total Flux Femur (Mouse 13, dose 0.5 mg/kg) | Organ Mean Total Flux Heart (Mouse 13, dose 0.5 mg/kg) | Organ Mean Total Flux Kidney (Mouse 13, dose 0.5 mg/kg) | Organ Mean Total Flux Liver (Mouse 13, dose 0.5 mg/kg) | Organ Mean Total Flux Lung (Mouse 13, dose 0.5 mg/kg) | Organ Mean Total Flux Muscle (Mouse 13, dose 0.5 mg/kg) | Organ Mean Total Flux Pancreas (Mouse 13, dose 0.5 mg/kg) | Organ Mean Total Flux Spleen (Mouse 13, dose 0.5 mg/kg) |
| --- | --- | --- | --- | --- | --- | --- | --- | --- | --- | --- | --- | --- | --- | --- | --- | --- |
| CCCCC/C=C\CCOC(=O)CCCCC(=O)OCC(COC(=O)CCCCC(=O)OCC/C=C\CCCCC)(COC(=O)CCC(CCCCCC)OC(=O)NCCN1CCCC1)COC(=O)C12CCC(CC1)CC2 (centres unmarked) [Compound 67, O6-[2-(bicyclo[2.2.2]octane-1-carbonyloxymethyl)-2-[[6-[(Z)-non-3-enoxy]-6-oxo-hexanoyl]-oxymethyl]-3-[4-(2-pyrrolidin-1-ylethylcarbamoyloxy)decanoyloxy]propyl]O1-[(Z)-non-3-enyl]hexanedioate] | 10.8 p/s (×10^6) | 0.4 p/s (×10^6) | 1.9 p/s (×10^6) | 220.0 p/s (×10^6) | 11.8 p/s (×10^6) | 22.8 p/s (×10^6) | 10.4 p/s (×10^6) | 50.1 p/s (×10^6) |  |  |  |  |  |  |  |  |
| CCCCC/C=C\CCOC(=O)CCCCC(=O)OCC(COC(=O)CCCCC(=O)OCC/C=C\CCCCC)(COC(=O)CCC(CCCCCC)OC(=O)NCCN1CCCC1)COC(=O)CC1CCC1 (centres unmarked) [Compound 73, O6-[2-[(2-cyclobutylacetyl)oxymethyl]-2-[[6-[(Z)-non-3-enoxy]-6-oxo-hexanoyl]oxymethyl]-3-[4-(2-pyrrolidin-1-ylethylcarbamoyloxy)decanoyloxy]propyl]O1-[(Z)-non-3-enyl]hexanedioate] | 7.3 p/s (×10^6) | 0.5 p/s (×10^6) | 1.7 p/s (×10^6) | 127.7 p/s (×10^6) | 10.6 p/s (×10^6) | 6.8 p/s (×10^6) | 15.7 p/s (×10^6) | 49.2 p/s (×10^6) |  |  |  |  |  |  |  |  |
| CCCCC/C=C\CCOC(=O)CCCCC(=O)OCC(COC(=O)CCCCC(=O)OCC/C=C\CCCCC)(COC(=O)CCC(CCCCCC)OC(=O)NCCN1CCCC1)COC(=O)C1CC2C(C1)C2(F)F (centres unmarked) [Compound 81, O6-[2-[(6,6-difluorobicyclo[3.1.0]hexane-3-carbonyl)oxymethyl]-2-[[6-[(Z)-non-3-enoxy]-6-oxo-hexanoyl]oxymethyl]-3-[4-(2-pyrrolidin-1-ylethylcarbamoyloxy)decanoyloxy]propyl]O1-[(Z)-non-3-enyl]hexanedioate] | 11.1 p/s (×10^6) | 1.2 p/s (×10^6) | 4.0 p/s (×10^6) | 727.0 p/s (×10^6) | 12.1 p/s (×10^6) | 5.7 p/s (×10^6) | 12.9 p/s (×10^6) | 115.9 p/s (×10^6) |  |  |  |  |  |  |  |  |
| CCCCC/C=C\CCOC(=O)CCCCC(=O)OCC(COC(=O)CCCCC(=O)OCC/C=C\CCCCC)(COC(=O)CCC(CCCCCC)OC(=O)NCCN1CCCC1)COC(=O)CC12CC(C1)C2 (centres unmarked) [Compound 91, O6-[2-[[2-(1-bicyclo[1.1.1]pentanyl)acetyl]oxymethyl]-2-[[6-[(Z)-non-3-enoxy]-6-oxo-hexanoyl]oxymethyl]-3-[4-(2-pyrrolidin-1ylethylcarbamoyloxy)decanoyloxy]propyl]O1-[(Z)-non-3-enyl]hexanedioate] | 15.8 p/s (×10^6) | 2.6 p/s (×10^6) | 12.3 p/s (×10^6) | 404.7 p/s (×10^6) | 26.3 p/s (×10^6) | 7.8 p/s (×10^6) | 76.4 p/s (×10^6) | 123.6 p/s (×10^6) |  |  |  |  |  |  |  |  |
| CCCCC/C=C\CCOC(=O)CCCCC(=O)OCC(COC(=O)CCCCC(=O)OCC/C=C\CCCCC)(COC(=O)CCC(CCCCCC)OC(=O)NCCN1CCCC1)COC(=O)C12CCC(F)(CC1)CC2 (centres unmarked) [Compound 93, O6-[2-[(4-fluorobicyclo[2.2.2]octane-1-carbonyl)oxymethyl]-2-[[6-[(Z)-non-3-enoxy]-6-oxo-hexanoyl]oxymethyl]-3-[4-(2-pyrrolidin-1-ylethylcarbamoyloxy)decanoyloxy]propyl]O1-[(Z)-non-3-enyl]hexanedioate] | 27.8 p/s (×10^6) | 1.3 p/s (×10^6) | 3.5 p/s (×10^6) | 528.7 p/s (×10^6) | 34.3 p/s (×10^6) | 11.0 p/s (×10^6) | 25.8 p/s (×10^6) | 136.6 p/s (×10^6) |  |  |  |  |  |  |  |  |
| CCCCC/C=C\CCOC(=O)CCCCC(=O)OCC(COC(=O)CCCCC(=O)OCC/C=C\CCCCC)(COC(=O)CCC(CCCCCC)OC(=O)NCCN1CCCC1)COC(=O)C1(C2CCCCC2)CCCCC1 (centres unmarked) [Compound 96, O6-[2-[(1-cyclohexylcyclohexanecarbonyl)oxymethyl]-2-[[6-[(Z)-non-3-enoxy]-6-oxo-hexanoyl]oxymethyl]-3-[4-(2-pyrrolidin-1-ylethylcarbamoyl-oxy)decanoyloxy]propyl]O1-[(Z)-non-3-enyl]hexanedioate] | 3.4 p/s (×10^6) | 0.4 p/s (×10^6) | 0.9 p/s (×10^6) | 213.0 p/s (×10^6) | 9.0 p/s (×10^6) | 11.9 p/s (×10^6) | 0.9 p/s (×10^6) | 6.6 p/s (×10^6) |  |  |  |  |  |  |  |  |
| CCCCC/C=C\CCOC(=O)CCCCC(=O)OCC(COC(=O)CCCCC(=O)OCC/C=C\CCCCC)(COC(=O)CCC(CCCCCC)OC(=O)NCCN1CCCC1)COC(=O)[C@]12CC[C@H](CC1)C2 (some centres unmarked) [Compound 99, O6-[2-[[6-[(Z)-non-3-enoxy]-6-oxo-hexanoyl]oxymethyl]-2-(norbornane-1-carbonyloxymethyl)-3-[4-(2-pyrrolidin-1-ylethylcarbamoyloxy)decanoyloxy]propyl]O1-[(Z)-non-3-enyl]hexanedioate] | 7.2 p/s (×10^6) | 0.4 p/s (×10^6) | 1.2 p/s (×10^6) | 177.0 p/s (×10^6) | 31.4 p/s (×10^6) | 6.5 p/s (×10^6) | 4.3 p/s (×10^6) | 47.5 p/s (×10^6) |  |  |  |  |  |  |  |  |
| CCCCC/C=C\CCOC(=O)CCCCC(=O)OCC(COC(=O)CCCCC(=O)OCC/C=C\CCCCC)(COC(=O)CCC(CCCCCC)OC(=O)NCCN1CCCC1)COC(=O)C1CC2(C1)CC(F)(F)C2 (centres unmarked) [Compound 100, O6-[2-[(2,2-difluorospiro[3.3]heptane-6-carbonyl)oxymethyl]-2-[[6-[(Z)-non-3-enoxy]-6-oxo-hexanoyl]oxymethyl]-3-[4-(2-pyrrolidin-1-ylethylcarbamoyloxy)decanoyloxy]propyl]O1-[(Z)-non-3-enyl]hexanedioate] | 13.8 p/s (×10^6) | 0.7 p/s (×10^6) | 2.3 p/s (×10^6) | 273.0 p/s (×10^6) | 37.8 p/s (×10^6) | 4.0 p/s (×10^6) | 25.2 p/s (×10^6) | 163.7 p/s (×10^6) |  |  |  |  |  |  |  |  |
| CCCCC/C=C\CCOC(=O)CCCCC(=O)OCC(COC(=O)CCCCC(=O)OCC/C=C\CCCCC)(COC(=O)CCC(CCCCCC)OC(=O)NCCN1CCCC1)COC(=O)C12CCCC1C2 (centres unmarked) [Compound 101, O6-[2-(bicyclo[3.1.0]hexane-1-carbonyloxymethyl)-2-[[6-[(Z)-non-3-enoxy]-6-oxo-hexanoyl]oxymethyl]-3-[4-(2-pyrrolidin-1-ylethylcarbamoyloxy)decanoyloxy]propyl]O1-[(Z)-non-3-enyl]hexanedioate] | 9.7 p/s (×10^6) | 0.8 p/s (×10^6) | 0.9 p/s (×10^6) | 306.7 p/s (×10^6) | 26.5 p/s (×10^6) | 5.2 p/s (×10^6) | 14.3 p/s (×10^6) | 53.2 p/s (×10^6) |  |  |  |  |  |  |  |  |
| CCCCC/C=C\CCOC(=O)CCCCC(=O)OCC(COC(=O)CCCCC(=O)OCC/C=C\CCCCC)(COC(=O)CCC(CCCCCC)OC(=O)NCCN1CCCC1)COC(=O)C1CCC2C(C1)C2(F)F (centres unmarked) [Compound 103, O6-[2-[(7,7-difluoronorcarane-3-carbonyl)oxymethyl]-2-[[6-[(Z)-non-3-enoxy]-6-oxo-hexanoyl]oxymethyl]-3-[4-(2-pyrrolidin-1ylethylcarbamoyloxy)decanoyloxy]propyl]O1-[(Z)-non-3-enyl]hexanedioate] |  |  |  |  |  |  |  |  | 26.0 p/s (×10^6) | 0.8 p/s (×10^6) | 2.4 p/s (×10^6) | 444.3 p/s (×10^6) | 16.0 p/s (×10^6) | 4.5 p/s (×10^6) | 13.5 p/s (×10^6) | 161.3 p/s (×10^6) |
